Test system: Radical scavenging activity
Assay: Antioxidant activity in unilamellar DOPC liposomes
Format: functional, subcellular, Liposome

Structure (SMILES) | Log IC50
Cc1cc(C)c2c(c1)[C@@H]1CN(C(=O)OCc3ccccc3)CC[C@@H]1N2 (racemic) | -5.36
Cc1cc2c(c([N+](=O)[O-])c1)N[C@H]1CCN(C)C[C@@H]21 (racemic) | -4.58
Cc1ccc2c(c1)[C@H]1CN(C)CC[C@H]1N2 [STOBADINE] | -4.6
CCCOC(=O)N1CC[C@@H]2Nc3cc(C)c(OC)c(C)c3[C@@H]2C1 (racemic) | -5.16
COC(=O)N1CC[C@@H]2Nc3c(Br)c(C)c(OC)c(C)c3[C@@H]2C1 (racemic) | -4.71
COc1ccc2c(c1)[C@H]1CN(C)CC[C@H]1N2 | -4.48
COc1ccc2c(c1)[C@@H]1CN(C(=O)OC(C)(C)C)CC[C@@H]1N2 (racemic) | -5.12
CCCCOC(=O)N1CC[C@@H]2Nc3cc(C)c(OC)c(C)c3[C@@H]2C1 (racemic) | -5.35
Cc1cc2c(c(N(C)C)c1)N[C@H]1CCN(C)C[C@@H]21 (racemic) | -4.66
COc1cc(C)c2c(c1)[C@@H]1CN(C(=O)OCc3ccccc3)CC[C@@H]1N2 (racemic) | -5.29
CCOC(=O)N1CC[C@@H]2Nc3cc(C)c(OC)c(C)c3[C@@H]2C1 (racemic) | -4.7
COC(=O)N1CC[C@@H]2Nc3cc(C)c(OC)c(C)c3[C@@H]2C1 (racemic) | -4.71
Cc1c(Br)cc2c(c1C)N[C@H]1CCN(C(=O)OCc3ccccc3)C[C@@H]21 (racemic) | -5.53
Cc1cc(Br)c2c(c1)[C@@H]1CN(C)CC[C@@H]1N2 (racemic) | -4.8
COc1ccc2c(c1)[C@@H]1CN(C(=O)OCc3ccccc3)CC[C@@H]1N2 (racemic) | -5.49
Cc1cc(N)c2c(c1)[C@@H]1CN(C)CC[C@@H]1N2 (racemic) | -4.9
COc1c(C)cc2c(c1C)[C@@H]1CN(C(=O)OCC(C)C)CC[C@@H]1N2 (racemic) | -5.19
CN1CC[C@@H]2Nc3ccc(O)cc3[C@@H]2C1 (racemic) | -4.68
COc1c(C)cc2c(c1C)[C@@H]1CN(C(=O)OCc3ccccc3)CC[C@@H]1N2 (racemic) | -5.48

Reference: ChEMBL document CHEMBL1146067, “Free radical scavenging and antioxidant activities of substituted hexahydropyridoindoles. Quantitative structure-activity relationships” (J Med Chem, 2006)
